From patent US9849099B2, “Antimicrobial compounds, compositions and methods of use thereof” (WISCONSIN ALUMNI RESEARCH FOUNDATION, priority 2014, dated 2017) come the findings set out here.

≈ marks a conversion by molar mass, not a printed value. Entries after “also recorded” stand apart in the source; their conditions may differ. Where two headings read alike, the source gives them in different places.

What is called MIC is the lowest concentration found to suppress growth.

Holding throughout (type): cell-based
One assay concerns E. coli BW25113 ΔtolC. Put plainly: MIC micro-dilution. The conditions noted are these: Escherichia coli, LB media, 37° C., 16-18 hours. As for the experimental part: (§1) Luria-Bertani (LB) media (10 g/L tryptone, 10 g/L NaCl, 5 g/L yeast extract, pH 7.0) was used to grow all bacterial strains, except Streptococcus pyogenes. Streptococcus pyogenes was grown in Mueller-Hinton broth containing 5% (v/v) sheep blood. All bacterial cultures were grown at 37° C. All the E. coli strains were grown while shaking at 200 rpm, while clinical pathogens were incubated without shaking.
(§2) The MIC of all the strains was determined in LB media except Streptococcus pyogenes, which was grown in Mueller-Hinton media containing 5% (v/v) sheep blood. The micro-dilution method was utilized in 96-well clear flat-bottom plates (100 μL/well) according to the CLSI guidelines. All strains were grown at 37° C. for 16-18 hours in presence of various concentrations of compound. The MIC was determined by a visual inspection and experiments were performed in triplicate.
On the technique in general: In broth dilution the organism is exposed to a series of concentrations in liquid medium.

The subject of the next assay is E. coli BW25113. The assay is described as follows: MIC micro-dilution. The conditions noted are these: Escherichia coli, LB media, 37° C., 16-18 hours. As for the experimental part: as §1, §2
For another assay, the system named is Acinetobacter baumannii. Put plainly: MIC micro-dilution. As for the experimental part: as §1, §2
For the next assay, the system named is Enterobacter aerogenes. Put plainly: MIC micro-dilution. The following applies: Klebsiella aerogenes. On the procedure: as §1, §2
The test system of another assay is Klebsiella pneumoniae. Put plainly: MIC micro-dilution. On the procedure:
as §1, §2

A further assay deals with Pseudomonas aeruginosa. Put plainly: MIC micro-dilution. On the procedure:
as §1, §2

For another assay, the system named is Morganella morganii. The assay is described as follows: MIC micro-dilution. As for the experimental part: as §1, §2
A further assay relates to Salmonella typhimurium. The assay is described as follows: MIC micro-dilution. The conditions noted are these: Salmonella enterica. As for the experimental part:
as §1, §2

Another assay has as its system Edwardsiella tarda. The assay is described as follows: MIC micro-dilution. As for the experimental part: as §1, §2
The test system of another assay is Shigella boydii. Put plainly: MIC micro-dilution. The conditions noted are these: LB media, 37° C., 16-18 hours, read-out: MIC. On the procedure:
as §1, §2

For a further assay, the system named is Vibrio cholerae. Put plainly: MIC micro-dilution. As for the experimental part:
as §1, §2

The test system of a further assay is Staphylococcus aureus. The assay is described as follows: MIC micro-dilution. As for the experimental part: as §1, §2
For assay [1], the system named is broad panel of human pathogens. The assay is described as follows: MIC against the panel of pathogens. The conditions noted are these: panel of pathogens. As for the experimental part: as §1, §2
The mark [2] stands for this setting: LB media, 37° C., 16-18 hours, read-out: MIC.
The mark [3] stands for this setting: Enterobacter aerogenes, LB media, 37° C., 16-18 hours, read-out: MIC.
[4] abbreviates: Salmonella typhimurium, LB media, 37° C., 16-18 hours, read-out: MIC.

As for `NCCc1c[nH]c2ccc(O)cc12` [Compound 2], the minimal inhibitory concentration (MIC) is above 51 µg/mL in the assay with E. coli BW25113 ΔtolC and above 51 µg/mL against E. coli BW25113 (BW25113, E. coli BW25113).
On to `COc1ccc2[nH]cc(CCN)c2c1` [Compound 3], for which the MIC is above 56 µg/mL with E. coli BW25113 ΔtolC and above 56 µg/mL against E. coli BW25113 (BW25113, E. coli BW25113).
Turning to `NCCc1c[nH]c2ccccc12` [Compound 4], the minimum inhibitory concentration (MIC) against E. coli BW25113 ΔtolC was above 61 µg/mL; against E. coli BW25113 (BW25113, E. coli BW25113) it was above 61 µg/mL.
For the compound `Cc1[nH]c2ccc(O)cc2c1CCN` [Compound 5], the minimal inhibitory concentration (MIC) with E. coli BW25113 ΔtolC was above 61 µg/mL; in the assay with E. coli BW25113 (BW25113, E. coli BW25113) it was above 61 µg/mL.
On to `COc1ccc2c(CCN)c[nH]c2c1` [Compound 6], for which the minimal inhibitory concentration (MIC) in the assay with E. coli BW25113 ΔtolC is above 61 µg/mL; in the assay with E. coli BW25113 (BW25113, E. coli BW25113), above 61 µg/mL.
On to `CCCCOc1ccc2[nH]cc(CCN)c2c1` [Compound 7], for which the MIC in the assay with Acinetobacter baumannii, against Enterobacter aerogenes, in the assay with Klebsiella pneumoniae, against Pseudomonas aeruginosa, with Morganella morganii and against Salmonella typhimurium (TYPHIMURIUM) was above 74 µg/mL each time. The MIC with E. coli BW25113 ΔtolC was above 74 µg/mL; against Edwardsiella tarda it was above 74 µg/mL; with Shigella boydii, above 74 µg/mL; with Vibrio cholerae, above 74 µg/mL; with E. coli BW25113 (BW25113, E. coli BW25113), above 74 µg/mL; in the assay on Staphylococcus aureus, above 74 µg/mL.
With `CCCCCCOc1ccc2[nH]cc(CCN)c2c1` [Compound 8], the minimum inhibitory concentration (MIC) in the assay with Acinetobacter baumannii is 42 µg/mL (≈ 161 µM); against Enterobacter aerogenes it was 42 µg/mL (≈ 161 µM); against Klebsiella pneumoniae it was 42 µg/mL (≈ 161 µM); against Pseudomonas aeruginosa it was above 83 µg/mL; against Morganella morganii, above 83 µg/mL; in the assay with Salmonella typhimurium (TYPHIMURIUM) it was 42 µg/mL (≈ 161 µM). Further, the minimal inhibitory concentration (MIC) against E. coli BW25113 ΔtolC amounted to 42 µg/mL (≈ 161 µM); against Edwardsiella tarda, 42 µg/mL (≈ 161 µM); with Shigella boydii, 42 µg/mL (≈ 161 µM); against Vibrio cholerae, 42 µg/mL (≈ 161 µM); with E. coli BW25113 (BW25113, E. coli BW25113), 42 µg/mL (≈ 161 µM); against Staphylococcus aureus, 42 µg/mL (≈ 161 µM).
For `CCCCCCCCCCOc1ccc2[nH]cc(CCN)c2c1` [Compound 9], the “MICs compared with Compound 1” value in [1] was “either the same or 2-fold different from 1”. Moreover, the minimum inhibitory concentration (MIC) in the assay on Acinetobacter baumannii (setting [2]) is 6.3 µg/mL (≈ 19.9 µM); in the assay with Enterobacter aerogenes (setting [3]) it was 13 µg/mL (≈ 41.1 µM); with Klebsiella pneumoniae (setting [2]), 6.3 µg/mL (≈ 19.9 µM); with Pseudomonas aeruginosa (setting [2]), above 101 µg/mL; with Morganella morganii (setting [2]), above 101 µg/mL; in the assay on Salmonella typhimurium (setting [4]), 6.3 µg/mL (≈ 19.9 µM). Also, the MIC came to 3.2 µg/mL (≈ 10.1 µM) in the assay with E. coli BW25113 ΔtolC; 25 µg/mL (≈ 79 µM) with Edwardsiella tarda (setting [2]); 3.2 µg/mL (≈ 10.1 µM) in the assay on Shigella boydii; 6.3 µg/mL (≈ 19.9 µM) against Vibrio cholerae; 6.3 µg/mL (≈ 19.9 µM) in the assay on E. coli BW25113 (E. coli BW25113, read-out: MIC); 6.3 µg/mL (≈ 19.9 µM) in the assay with Staphylococcus aureus (setting [2]).
In the case of `CC(C)CCCC(C)CCOc1ccc2[nH]cc(CCN)c2c1` (stereo not drawn) [Compound 10], the “MICs compared with Compound 1” value in [1] was “either the same or 2× different from Compound 1; also recorded: either the same or 2-fold different from 1”. Further, the MIC is 13 µg/mL (≈ 41.1 µM) in the assay with Acinetobacter baumannii (setting [2]); 13 µg/mL (≈ 41.1 µM) in the assay on Enterobacter aerogenes (setting [3]); 13 µg/mL (≈ 41.1 µM) with Klebsiella pneumoniae (setting [2]); 25 µg/mL (≈ 79 µM) in the assay with Pseudomonas aeruginosa (setting [2]); above 101 µg/mL with Morganella morganii (setting [2]); 6.3 µg/mL (≈ 19.9 µM) in the assay on Salmonella typhimurium (setting [4]). For the same compound, the MIC in the assay with E. coli BW25113 ΔtolC worked out at 3.2 µg/mL (≈ 10.1 µM); with Edwardsiella tarda (setting [2]) it was 25 µg/mL (≈ 79 µM); with Shigella boydii it was 6.3 µg/mL (≈ 19.9 µM); in the assay with Vibrio cholerae it was 6.3 µg/mL (≈ 19.9 µM); in the assay on E. coli BW25113 (E. coli BW25113, read-out: MIC), 13 µg/mL (≈ 41.1 µM); in the assay on Staphylococcus aureus (setting [2]), 6.3 µg/mL (≈ 19.9 µM).
